Measurements from publication PMC8272914 (Journal of medicinal chemistry, 2019).

Assays:
[1] = biological target: hD3R (Homo sapiens, UniProt P35462); assay: Radioligand competition binding vs [3H]-; settings: for Ki: D3R Ki ± SEM, HEK293 cells stably expressing hD3R
[2] = biological target: hD2R (Homo sapiens, UniProt P14416); assay: Radioligand competition binding vs [3H]-; settings: vs. [3H]-(R)-(+)-7-OH-DPAT; for Ki: D2R Ki ± SEM, HEK293 cells stably expressing hD2R
[3] = biological target: D3R (Homo sapiens, UniProt P35462); settings: cited from earlier work
[4] = drug self-administration and drug discrimination, rats; cited from earlier work
[5] = Table 2, vs. [3H]-(R)-(+)-7-OH-DPAT
[6] = Table 1, vs. [3H]-(R)-(+)-7-OH-DPAT

Chain of hD2R (P14416 whole entry): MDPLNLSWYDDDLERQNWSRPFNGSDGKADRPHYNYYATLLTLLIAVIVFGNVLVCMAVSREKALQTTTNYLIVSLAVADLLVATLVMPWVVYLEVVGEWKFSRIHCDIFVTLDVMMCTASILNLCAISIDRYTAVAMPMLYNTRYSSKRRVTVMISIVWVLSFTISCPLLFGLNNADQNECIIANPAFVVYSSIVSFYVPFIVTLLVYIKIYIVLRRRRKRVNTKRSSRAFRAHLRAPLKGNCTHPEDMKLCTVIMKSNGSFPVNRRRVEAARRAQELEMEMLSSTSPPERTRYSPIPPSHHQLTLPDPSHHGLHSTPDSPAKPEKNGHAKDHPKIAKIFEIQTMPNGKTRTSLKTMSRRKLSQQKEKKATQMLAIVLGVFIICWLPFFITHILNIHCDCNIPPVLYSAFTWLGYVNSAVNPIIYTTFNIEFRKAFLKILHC
Chain of hD3R (P35462 whole entry): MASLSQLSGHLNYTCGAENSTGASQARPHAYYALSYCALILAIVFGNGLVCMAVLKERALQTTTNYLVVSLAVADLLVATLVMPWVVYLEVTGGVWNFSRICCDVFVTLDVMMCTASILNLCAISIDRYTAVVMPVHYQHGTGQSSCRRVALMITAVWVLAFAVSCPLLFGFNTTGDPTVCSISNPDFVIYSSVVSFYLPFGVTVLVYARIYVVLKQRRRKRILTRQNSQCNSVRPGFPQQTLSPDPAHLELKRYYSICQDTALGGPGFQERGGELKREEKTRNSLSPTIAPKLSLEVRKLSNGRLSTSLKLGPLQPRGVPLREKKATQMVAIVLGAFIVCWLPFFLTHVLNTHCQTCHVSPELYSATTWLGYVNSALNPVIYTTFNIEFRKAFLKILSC
Chain of D3R (P35462 whole entry): as above

Work on `CCCN(CCC)c1ccc(C2CN(CCC)[C@@H](C)CO2)cn1` (stereo partly drawn) [Compound 20, 5-((5S)-5-methyl-4-propylmorpholin-2-yl)-N,N-dipropylpyridin-2-amine] yielded a D4R/D3R ([1]; Table 2, ratio of Ki values vs. [3H]-(R)-(+)-7-OH-DPAT) greater than 4.74.

In the case of `C[C@H]1CO[C@H](c2ccc(N)nc2)CN1CC1CC1CNC(=O)c1cc2ccccc2[nH]1` (stereo partly drawn) [Compound 39b, cis-N-((2-(((2R,5S)-2-(6-aminopyridin-3-yl)-5-methylmorpholino)methyl)cyclopropyl)methyl)-1H-indole-2-carboxamide], the Ki [1, 5] is reported as 32900 nM and the Ki ([2]; Table 2) is reported as 7730 nM.

With `C[C@H]1CO[C@@H](c2ccc(N)nc2)CN1CC1CC1CNC(=O)c1cc2ccccc2[nH]1` (stereo partly drawn) [Compound 37a, trans-N-((2-(((2S,5S)-2-(6-aminopyridin-3-yl)-5-methylmorpholino)methyl)cyclopropyl)methyl)-1H-indole-2-carboxamide] the Ki [1, 5] was 1190 nM and the “selectivity for D2R over D3R” value [2] was ~ 5 fold.

For `CCCN1CCO[C@@H]2c3cc(O)ccc3OC[C@H]21` [Compound 1, (4aR,10bR)-4-propyl-3,4,4a,10b-tetrahydro-2H,5H-chromeno[4,3-b][1,4]oxazin-9-ol], the “D3R over D2R selectivity” value [3] is listed as ~ 10 fold.

With `Oc1ccc2c(c1)[C@H]1OCCN[C@@H]1CO2` [Compound 15, (4aR,10bR)-3,4,4a,10b-tetrahydro-2H,5H-chromeno[4,3-b][1,4]oxazin-9-ol] the “reduced affinity (loss of affinity) at both D2R and D3R relative to parent 1” value ([1]; vs. [3H]-(R)-(+)-7-OH-DPAT) was greater than 200 fold and the “selectivity for D3R over D2R” value ([1]; vs. [3H]-(R)-(+)-7-OH-DPAT) was 10 fold.

In the case of `CCCN1CC(c2ccc(N)nc2)OC[C@@H]1C` (stereo partly shown) [Compound 2], the abuse potential [4] is listed as “lack of abuse potential”.

In the case of `CCCN(CCC)C1CCc2ccc(O)cc2C1` (stereo not shown) [Compound 7-OH-DPAT, 7-Hydroxy-N,N-dipropyl-2-aminotetralin], the “D3R over D2R selectivity” value [3] is given as ~ 10 fold.

In the case of `O=C(NCCCCNC1COc2ccc(O)cc2C1=O)c1cc2ccccc2[nH]1` (stereo not shown) [Compound 19a, N-(4-((6-hydroxy-4-oxochroman-3-yl)amino)butyl)-1H-indole-2-carboxamide], the Ki [1, 6] is reported as 354 ± 45.1 nM and the “reduced affinity (loss of affinity) at both D2R and D3R relative to parent 1” value ([1]; vs. [3H]-(R)-(+)-7-OH-DPAT) is reported as 100–1,000 fold.

With `C[C@H]1CO[C@@H](c2ccc(N)nc2)CN1CCCCOc1ccc2c(c1)NC(=O)CC2` [Compound 26, 7-(4-((2S,5S)-2-(6-aminopyridin-3-yl)-5-methylmorpholino)butoxy)-3,4-dihydroquinolin-2(1H)-one] the “higher D3R affinity compared to its (2R,5S) diastereoisomer” value ([1]; 27 vs 25, 26 vs 24, vs. [3H]-(R)-(+)-7-OH-DPAT) was 775 fold.

`C[C@H]1CO[C@@H](c2ccc(N)nc2)CN1CC1CC1CNC(=O)c1cc2ccccc2[nH]1` (stereo partly drawn) [Compound 38a, cis-N-((2-(((2S,5S)-2-(6-aminopyridin-3-yl)-5-methylmorpholino)methyl)cyclopropyl)methyl)-1H-indole-2-carboxamide] showed a Ki [1, 5] of 2150 nM and a Ki ([2]; Table 2) of 1070 nM.

In the case of `O=C(NCCCCNC1COc2ccc(O)cc2C1=O)c1cc2ccccc2[nH]1` (stereo not shown) [Compound 19b, N-(4-((6-hydroxy-4-oxochroman-3-yl)amino)butyl)-1H-indole-2-carboxamide], the Ki [1, 6] is reported as 1770 nM, the “reduced affinity (loss of affinity) at both D2R and D3R relative to parent 1” value ([1]; vs. [3H]-(R)-(+)-7-OH-DPAT) is reported as 100–1,000 fold and the Ki ([2]; Table 1) is reported as 1430 nM.

With `C[C@H]1CO[C@H](c2ccc(N)nc2)CN1CC1CC1CNC(=O)c1cc2ccccc2[nH]1` (stereo partly drawn) [Compound 39a, cis-N-((2-(((2R,5S)-2-(6-aminopyridin-3-yl)-5-methylmorpholino)methyl)cyclopropyl)methyl)-1H-indole-2-carboxamide] the Ki [1, 5] was 26200 nM.

For `CCCN[C@H]1CCc2nc(N)sc2C1` [Pramipexole, reference compound], the Ki [1, 6] was 1.69 nM.

For `CCc1cc(Cl)c(OC)c(N2CCN(CCCCOc3ccc4c(c3)NC(=O)CC4)CC2)c1` [Compound 57, 7-(4-(4-(3-chloro-5-ethyl-2-methoxyphenyl)piperazin-1-yl)butoxy)-3,4-dihydroquinolin-2(1H)-one], the “selectivity for D2R over D3R” value [2] was 22 fold.

Work on `C[C@H]1CO[C@@H](c2ccc(N)nc2)CN1CC1CC1CNC(=O)c1cc2ccccc2[nH]1` (stereo partly drawn) [Compound 38b, cis-N-((2-(((2S,5S)-2-(6-aminopyridin-3-yl)-5-methylmorpholino)methyl)cyclopropyl)methyl)-1H-indole-2-carboxamide] yielded a Ki [1, 5] of 276 ± 30 nM and a Ki ([2]; Table 2) of 120 ± 16.6 nM.

With `C[C@H]1CO[C@@H](c2ccc(N)nc2)CN1CC1CC1CNC(=O)c1cc2ccccc2[nH]1` (stereo partly drawn) [Compound 37b, trans-N-((2-(((2S,5S)-2-(6-aminopyridin-3-yl)-5-methylmorpholino)methyl)cyclopropyl)methyl)-1H-indole-2-carboxamide] the Ki [1, 5] was 404 ± 34 nM and the Ki ([2]; Table 2) was 707 ± 19.8 nM.
